Experimental data from ChEMBL document CHEMBL1139605, “Novel ketal ligands for the glucocorticoid receptor: in vitro and in vivo activity” (Bioorg Med Chem Lett, 2005).

Tests used:
A549 [1] = assay: Effective concentration for inhibition of interleukin-6 in human A549 lung carcinoma cell line using 62% radiolabeled Dexamethasone; assay type: functional, cell-based
Glucocorticoid receptor [2] = molecular target: T1, Glucocorticoid receptor (Homo sapiens, UniProt P04150); assay: Inhibition of human glucocorticoid receptor alpha isoform
T1 sequence (P04150 whole entry): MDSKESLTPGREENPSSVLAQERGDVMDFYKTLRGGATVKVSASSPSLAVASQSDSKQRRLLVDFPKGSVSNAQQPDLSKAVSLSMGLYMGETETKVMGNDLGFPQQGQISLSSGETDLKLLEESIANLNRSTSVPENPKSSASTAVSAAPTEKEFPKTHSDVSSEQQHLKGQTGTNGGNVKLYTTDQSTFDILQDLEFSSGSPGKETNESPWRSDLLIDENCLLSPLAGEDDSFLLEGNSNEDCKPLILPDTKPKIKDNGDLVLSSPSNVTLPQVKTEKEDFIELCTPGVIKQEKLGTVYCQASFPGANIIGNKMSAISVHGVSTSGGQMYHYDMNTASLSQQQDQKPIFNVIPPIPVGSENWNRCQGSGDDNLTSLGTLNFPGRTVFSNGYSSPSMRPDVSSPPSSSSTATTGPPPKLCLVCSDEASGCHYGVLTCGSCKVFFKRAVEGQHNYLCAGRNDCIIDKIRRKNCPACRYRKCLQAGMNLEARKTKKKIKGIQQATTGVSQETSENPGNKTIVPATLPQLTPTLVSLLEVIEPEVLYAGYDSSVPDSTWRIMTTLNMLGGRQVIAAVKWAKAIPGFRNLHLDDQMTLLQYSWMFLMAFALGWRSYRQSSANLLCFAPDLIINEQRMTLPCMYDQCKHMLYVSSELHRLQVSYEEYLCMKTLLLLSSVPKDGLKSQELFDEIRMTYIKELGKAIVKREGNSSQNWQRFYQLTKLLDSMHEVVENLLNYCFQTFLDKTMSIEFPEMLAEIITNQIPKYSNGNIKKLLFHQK

Mus musculus [3] = organism: Mus musculus; assay: Effective concentration required for inhibition of interleukin-6 in mouse thioglycolate-elicited peritoneal exudate cell line using 69% radiolabeled Dexamethasone; assay type: functional
A549 [4] = assay: Effective concentration for inhibition of interleukin-6 in human A549 lung carcinoma cell line using 35% radiolabeled Dexamethasone; assay type: functional, cell-based
Mus musculus [5] = organism: Mus musculus; assay: Effective concentration required for inhibition of interleukin-6 in mouse thioglycolate-elicited peritoneal exudate cell line using 52% radiolabeled Dexamethasone; assay type: functional
A549 [6] = assay: Effective concentration for inhibition of interleukin-6 in human A549 lung carcinoma cell line using […]% radiolabeled Dexamethasone; assay type: functional, cell-based
A549 [7] = assay: Effective concentration for inhibition of interleukin-6 in human A549 lung carcinoma cell line using 44% radiolabeled Dexamethasone; assay type: functional, cell-based
A549 [8] = assay: Effective concentration for inhibition of interleukin-6 in human A549 lung carcinoma cell line using 58% radiolabeled Dexamethasone; assay type: functional, cell-based
Mus musculus [9] = organism: Mus musculus; assay: Effective concentration required for interleukin-6 transrepression in peritoneal exudate cells of C57B1/6 mouse using 56% Dexamethasone; assay type: functional, cell-based
[10] = Clearance data in mouse at 2 mg/kg i.v. administration; assay type: ADME, organism-based; set-up: dose 2 mg/kg, route intravenous; details: in vivo, iv
Mus musculus [11] = assay: Inhibition of LPS induced TNF-alpha secretion in mouse at an oral dose of 30 mg/kg relative to that produced by Dexamethasone at a dose of 0.3 mg/kg; assay type: functional
[12] = Bioavailability in mouse (dose 10 mg/kg p.o.); assay type: ADME, organism-based; details: in vivo, po
[13] = Volume of distribution in mouse at 2 mg/kg i.v. administration; assay type: ADME, organism-based; set-up: dose 2 mg/kg, route intravenous; details: in vivo, iv, read-out: Volume of distribution
Progesterone receptor = molecular target: T2, Progesterone receptor (Homo sapiens, UniProt P06401); assay: Binding affinity for human progesterone receptor
T2 sequence (P06401 whole entry): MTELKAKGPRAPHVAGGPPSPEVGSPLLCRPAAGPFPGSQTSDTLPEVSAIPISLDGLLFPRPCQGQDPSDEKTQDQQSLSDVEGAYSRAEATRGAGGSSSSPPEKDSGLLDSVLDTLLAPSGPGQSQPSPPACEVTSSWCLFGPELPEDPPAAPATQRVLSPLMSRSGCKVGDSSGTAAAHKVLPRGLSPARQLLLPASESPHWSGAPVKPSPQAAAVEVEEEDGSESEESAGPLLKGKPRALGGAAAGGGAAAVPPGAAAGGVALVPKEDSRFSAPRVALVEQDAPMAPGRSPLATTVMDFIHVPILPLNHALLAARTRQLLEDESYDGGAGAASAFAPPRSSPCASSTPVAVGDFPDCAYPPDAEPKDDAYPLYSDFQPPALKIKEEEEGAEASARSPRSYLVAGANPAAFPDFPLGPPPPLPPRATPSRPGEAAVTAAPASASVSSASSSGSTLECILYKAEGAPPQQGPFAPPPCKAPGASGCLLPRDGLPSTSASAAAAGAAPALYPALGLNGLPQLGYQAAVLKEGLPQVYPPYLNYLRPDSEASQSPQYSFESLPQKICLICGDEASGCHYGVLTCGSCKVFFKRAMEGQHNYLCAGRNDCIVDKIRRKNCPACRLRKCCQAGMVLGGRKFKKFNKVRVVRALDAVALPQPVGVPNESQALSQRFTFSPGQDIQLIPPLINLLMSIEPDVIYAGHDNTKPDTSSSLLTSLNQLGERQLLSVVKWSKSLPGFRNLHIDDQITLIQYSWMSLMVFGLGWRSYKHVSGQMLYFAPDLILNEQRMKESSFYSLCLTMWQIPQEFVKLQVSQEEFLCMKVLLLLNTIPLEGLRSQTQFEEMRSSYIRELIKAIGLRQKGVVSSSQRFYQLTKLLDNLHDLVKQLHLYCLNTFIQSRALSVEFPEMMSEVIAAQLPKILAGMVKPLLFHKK

[14] = molecular target: T3, Mineralocorticoid receptor (Rattus norvegicus, UniProt P22199); assay: Binding affinity for rat mineralocorticoid receptor
T3 sequence (P22199 whole entry): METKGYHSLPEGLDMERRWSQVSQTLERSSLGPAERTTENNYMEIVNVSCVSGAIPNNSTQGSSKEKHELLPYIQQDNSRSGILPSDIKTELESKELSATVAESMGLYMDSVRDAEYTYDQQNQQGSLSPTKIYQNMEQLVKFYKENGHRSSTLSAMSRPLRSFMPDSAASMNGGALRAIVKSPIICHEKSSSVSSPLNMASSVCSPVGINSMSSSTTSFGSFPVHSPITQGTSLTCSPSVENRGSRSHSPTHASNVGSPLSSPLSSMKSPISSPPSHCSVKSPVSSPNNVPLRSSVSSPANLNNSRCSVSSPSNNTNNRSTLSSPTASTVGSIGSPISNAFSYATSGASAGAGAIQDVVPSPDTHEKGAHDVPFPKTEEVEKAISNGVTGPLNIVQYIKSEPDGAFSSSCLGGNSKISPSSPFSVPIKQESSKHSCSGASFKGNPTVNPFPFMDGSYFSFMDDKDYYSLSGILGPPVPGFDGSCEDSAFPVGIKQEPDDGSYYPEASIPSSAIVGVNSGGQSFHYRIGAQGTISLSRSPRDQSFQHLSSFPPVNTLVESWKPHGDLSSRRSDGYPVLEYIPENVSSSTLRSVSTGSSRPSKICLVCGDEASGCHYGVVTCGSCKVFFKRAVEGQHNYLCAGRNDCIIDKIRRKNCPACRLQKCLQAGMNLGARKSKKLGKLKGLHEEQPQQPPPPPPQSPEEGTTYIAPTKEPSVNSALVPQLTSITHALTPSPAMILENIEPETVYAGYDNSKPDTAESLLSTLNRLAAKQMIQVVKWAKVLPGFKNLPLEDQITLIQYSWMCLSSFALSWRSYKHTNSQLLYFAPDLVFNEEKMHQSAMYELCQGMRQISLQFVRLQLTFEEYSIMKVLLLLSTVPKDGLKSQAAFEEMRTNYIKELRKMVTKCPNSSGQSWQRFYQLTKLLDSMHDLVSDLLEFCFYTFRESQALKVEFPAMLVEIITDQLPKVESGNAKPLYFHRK

Mus musculus [15] = organism: Mus musculus; assay: Effective concentration required for inhibition of interleukin-6 in mouse thioglycolate-elicited peritoneal exudate cell line using 56% radiolabeled Dexamethasone; assay type: functional
Glucocorticoid receptor [16] = molecular target: T1, Glucocorticoid receptor; assay: Binding affinity for human glucocorticoid receptor
[17] = Half life time in mouse at 2 mg/kg i.v. administration; assay type: ADME, organism-based; set-up: dose 2 mg/kg, route intravenous; details: in vivo, iv
Estrogen receptor = molecular target: T4, Estrogen receptor (Homo sapiens, UniProt P03372); assay: Binding affinity for human estrogen receptor alpha
T4 sequence (P03372 whole entry): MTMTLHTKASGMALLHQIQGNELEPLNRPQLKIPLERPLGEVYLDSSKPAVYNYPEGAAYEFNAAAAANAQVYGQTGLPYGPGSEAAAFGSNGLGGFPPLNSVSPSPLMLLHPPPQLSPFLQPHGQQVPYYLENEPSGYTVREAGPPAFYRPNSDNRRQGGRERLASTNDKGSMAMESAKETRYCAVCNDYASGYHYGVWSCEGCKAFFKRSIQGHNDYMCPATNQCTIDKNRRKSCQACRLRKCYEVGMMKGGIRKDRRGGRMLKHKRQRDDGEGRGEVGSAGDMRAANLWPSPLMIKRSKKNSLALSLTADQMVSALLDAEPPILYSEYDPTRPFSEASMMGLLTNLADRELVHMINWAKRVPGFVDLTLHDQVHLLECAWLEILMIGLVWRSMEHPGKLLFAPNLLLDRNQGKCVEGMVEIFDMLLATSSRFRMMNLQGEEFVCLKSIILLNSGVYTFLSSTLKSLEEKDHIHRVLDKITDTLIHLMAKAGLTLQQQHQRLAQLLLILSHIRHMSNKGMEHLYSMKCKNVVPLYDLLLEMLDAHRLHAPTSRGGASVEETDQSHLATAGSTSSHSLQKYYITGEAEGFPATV

Estrogen receptor beta = Estrogen receptor beta (Homo sapiens, UniProt Q92731); assay: Binding affinity for human estrogen receptor beta
Mus musculus [18] = organism: Mus musculus; assay: Effective concentration required for inhibition of interleukin-6 in mouse thioglycolate-elicited peritoneal exudate cell line using 77% radiolabeled Dexamethasone; assay type: functional
A549 [19] = assay: Effective concentration for inhibition of interleukin-6 in human A549 lung carcinoma cell line using 59% radiolabeled Dexamethasone; assay type: functional, cell-based

Sequence of Estrogen receptor beta (Q92731 whole entry): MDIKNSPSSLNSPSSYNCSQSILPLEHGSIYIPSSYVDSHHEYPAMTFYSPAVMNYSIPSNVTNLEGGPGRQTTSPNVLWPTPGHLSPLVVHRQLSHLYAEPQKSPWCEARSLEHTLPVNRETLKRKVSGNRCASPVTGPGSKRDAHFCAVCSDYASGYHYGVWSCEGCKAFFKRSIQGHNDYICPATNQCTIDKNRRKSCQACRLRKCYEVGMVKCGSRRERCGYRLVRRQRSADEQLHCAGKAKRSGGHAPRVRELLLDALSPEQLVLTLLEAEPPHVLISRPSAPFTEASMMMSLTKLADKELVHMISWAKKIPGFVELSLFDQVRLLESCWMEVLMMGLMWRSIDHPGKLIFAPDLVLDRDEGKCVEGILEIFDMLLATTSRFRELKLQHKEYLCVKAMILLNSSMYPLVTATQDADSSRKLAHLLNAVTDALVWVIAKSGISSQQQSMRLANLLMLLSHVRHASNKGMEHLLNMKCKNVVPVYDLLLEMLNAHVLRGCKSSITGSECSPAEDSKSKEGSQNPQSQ

Compound `COC[C@H]1OC2(CCC3=Cc4c(cnn4-c4ccc(F)cc4)C[C@@]32C)O[C@@H]1COC` has an EC50 (A549 [1]) of 8.3 nM, an IC50 (Glucocorticoid receptor [2]) of 26 nM and an EC50 (Mus musculus [3]) of 10 nM.

Compound `C[C@H]1CCO[C@]2(CCC3=Cc4c(cnn4-c4ccc(F)cc4)C[C@@]32C)O1` has an EC50 (A549 [4]) of 0.53 nM and an IC50 (Glucocorticoid receptor [2]) of 21 nM.

With `C=C[C@@H]1CO[C@]2(CCC3=Cc4c(cnn4-c4ccc(F)cc4)C[C@@]32C)O1` the EC50 (Mus musculus [5]) was 168 nM, the IC50 (Glucocorticoid receptor [2]) was 5.8 nM and the EC50 (A549 [6]) was 9 nM.

Compound `C[C@@H]1CC(C)(C)O[C@]2(CCC3=Cc4c(cnn4-c4ccc(F)cc4)C[C@@]32C)O1` has an EC50 (A549 [7]) of 12 nM and an IC50 (Glucocorticoid receptor [2]) of 2.2 nM.

In the case of `C=C[C@H]1OC2(CCC3=Cc4c(cnn4-c4ccc(F)cc4)C[C@@]32C)O[C@@H]1C=C`, the EC50 (A549 [8]) is reported as 2.6 nM, the EC50 (Mus musculus [9]) is reported as 61 nM and the clearance [10] is reported as 114 mL/min/kg. For the same compound, the Inhibition (Mus musculus [11]) was 96.8%, the bioavailability [12] was 14.3% and the Vd [13] was 15.3 L/kg. The IC50 (Progesterone receptor) was greater than 1000 nM, the IC50 [14] was greater than 10000 nM and the IC50 (Glucocorticoid receptor [2]) was 8 nM. For the same compound, the EC50 (Mus musculus [15]) was 61 nM, the IC50 (Glucocorticoid receptor [16]) was 8 nM and the half-life [17] was 2.3 h. The IC50 (Estrogen receptor) was greater than 10000 nM and the IC50 (Estrogen receptor beta) was greater than 10000 nM.

`C[C@@H]1CC(C)(C)O[C@@]2(CCC3=Cc4c(cnn4-c4ccc(F)cc4)C[C@@]32C)O1` gave an EC50 (Mus musculus [18]) of 18 nM, an IC50 (Glucocorticoid receptor [2]) of 2.1 nM and an EC50 (A549 [19]) of 25 nM.
